Reference: PubChem BioAssay (NCI)
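Tested at 5 concentrations; 48 h exposure; 96-well plates; endpoints linearly interpolated, else capped at highest concentration. TGI marks complete inhibition of growth.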

Assays:
Test in all cases: NCI anticancer screen, dose series, 48 h
786-0 renal = tested on: 786-0 renal
A498 renal = tested on: A498 renal
A549 NSCLC = tested on: A549 NSCLC
ACHN renal = tested on: ACHN renal
BT-549 breast = tested on: BT-549 breast
CAKI-1 renal = tested on: CAKI-1 renal
CCRF-CEM leukemia = tested on: CCRF-CEM leukemia
COLO 205 colon = tested on: COLO 205 colon
DU-145 prostate = tested on: DU-145 prostate
EKVX NSCLC = tested on: EKVX NSCLC
HCT-116 colon = tested on: HCT-116 colon
HCT-15 colon = tested on: HCT-15 colon
HL-60(TB) leukemia = tested on: HL-60(TB) leukemia
HOP-62 NSCLC = tested on: HOP-62 NSCLC
HOP-92 NSCLC = tested on: HOP-92 NSCLC
HS 578T breast = tested on: HS 578T breast
HT29 colon = tested on: HT29 colon
IGROV1 ovarian = tested on: IGROV1 ovarian
K-562 leukemia = tested on: K-562 leukemia
KM12 colon = tested on: KM12 colon
LOX IMVI melanoma = tested on: LOX IMVI melanoma
M14 melanoma = tested on: M14 melanoma
MALME-3M melanoma = tested on: MALME-3M melanoma
MCF7 breast = tested on: MCF7 breast
MDA-MB-231 breast = tested on: MDA-MB-231 breast
MDA-MB-435 = tested on: MDA-MB-435
MDA-N = tested on: MDA-N
MOLT-4 leukemia = tested on: MOLT-4 leukemia
NCI-H226 lung = tested on: NCI-H226 lung
NCI-H23 lung = tested on: NCI-H23 lung
NCI-H460 lung = tested on: NCI-H460 lung
NCI-H522 lung = tested on: NCI-H522 lung
NCI/ADR-RES ovarian = tested on: NCI/ADR-RES ovarian
OVCAR-3 ovarian = tested on: OVCAR-3 ovarian
OVCAR-4 ovarian = tested on: OVCAR-4 ovarian
OVCAR-5 ovarian = tested on: OVCAR-5 ovarian
OVCAR-8 ovarian = tested on: OVCAR-8 ovarian
PC-3 prostate = tested on: PC-3 prostate
RXF 393 renal = tested on: RXF 393 renal
SF-268 CNS = tested on: SF-268 CNS
SF-295 CNS = tested on: SF-295 CNS
SF-539 CNS = tested on: SF-539 CNS
SK-MEL-2 melanoma = tested on: SK-MEL-2 melanoma
SK-MEL-28 melanoma = tested on: SK-MEL-28 melanoma
SK-MEL-5 melanoma = tested on: SK-MEL-5 melanoma
SK-OV-3 ovarian = tested on: SK-OV-3 ovarian
SN12C renal = tested on: SN12C renal
SNB-19 CNS = tested on: SNB-19 CNS
SNB-75 CNS = tested on: SNB-75 CNS
SR leukemia = tested on: SR leukemia
SW-620 colon = tested on: SW-620 colon
T-47D breast = tested on: T-47D breast
TK-10 renal = tested on: TK-10 renal
U251 CNS = tested on: U251 CNS
UACC-257 melanoma = tested on: UACC-257 melanoma
UACC-62 melanoma = tested on: UACC-62 melanoma
UO-31 renal = tested on: UO-31 renal
RPMI-8226 leukemia = tested on: RPMI-8226 leukemia

Compound `Cc1cc(C)c2c(=O)n(CN3CCC(C#N)(c4ccccc4)CC3)sc2n1` has a TGI (786-0 renal) of 52.6 µM, a TGI (A498 renal) of over 100 µM and a TGI (A549 NSCLC) of over 100 µM. It also gave a TGI (ACHN renal) of 44.1 µM, a TGI (BT-549 breast) of over 100 µM and a TGI (CAKI-1 renal) of over 100 µM. The TGI (CCRF-CEM leukemia) was over 100 µM, the TGI (COLO 205 colon) was over 100 µM and the TGI (DU-145 prostate) was over 100 µM. The TGI (EKVX NSCLC) was over 100 µM, the TGI (HCT-116 colon) was over 100 µM and the TGI (HCT-15 colon) was over 100 µM. The TGI (HL-60(TB) leukemia) was 49.7 µM, the TGI (HOP-62 NSCLC) was over 100 µM and the TGI (HOP-92 NSCLC) was over 100 µM. The TGI (HS 578T breast) was over 100 µM, the TGI (HT29 colon) was over 100 µM and the TGI (IGROV1 ovarian) was over 100 µM. It also gave a TGI (K-562 leukemia) of over 100 µM, a TGI (KM12 colon) of over 100 µM and a TGI (LOX IMVI melanoma) of 69.9 µM. The TGI (M14 melanoma) was over 100 µM, the TGI (MALME-3M melanoma) was 46.5 µM and the TGI (MCF7 breast) was over 100 µM. The TGI (MDA-MB-231 breast) was over 100 µM, the TGI (MDA-MB-435) was 65.5 µM and the TGI (MDA-N) was 80.3 µM. For the same compound, the TGI (MOLT-4 leukemia) was over 100 µM, the TGI (NCI-H226 lung) was over 100 µM and the TGI (NCI-H23 lung) was over 100 µM. For the same compound, the TGI (NCI-H460 lung) was over 100 µM, the TGI (NCI-H522 lung) was 31.3 µM and the TGI (NCI/ADR-RES ovarian) was over 100 µM. It also gave a TGI (OVCAR-3 ovarian) of over 100 µM, a TGI (OVCAR-4 ovarian) of 88.8 µM and a TGI (OVCAR-5 ovarian) of 90.9 µM. For the same compound, the TGI (OVCAR-8 ovarian) was 81.5 µM, the TGI (PC-3 prostate) was over 100 µM and the TGI (RXF 393 renal) was 48 µM. It also gave a TGI (SF-268 CNS) of over 100 µM, a TGI (SF-295 CNS) of over 100 µM and a TGI (SF-539 CNS) of 98.3 µM. The TGI (SK-MEL-2 melanoma) was over 100 µM, the TGI (SK-MEL-28 melanoma) was over 100 µM and the TGI (SK-MEL-5 melanoma) was over 100 µM. It also gave a TGI (SK-OV-3 ovarian) of over 100 µM, a TGI (SN12C renal) of over 100 µM and a TGI (SNB-19 CNS) of over 100 µM. The TGI (SNB-75 CNS) was 76.1 µM, the TGI (SR leukemia) was over 100 µM and the TGI (SW-620 colon) was 67.7 µM. For the same compound, the TGI (T-47D breast) was over 100 µM, the TGI (TK-10 renal) was 63.6 µM and the TGI (U251 CNS) was over 100 µM. For the same compound, the TGI (UACC-257 melanoma) was 44.6 µM, the TGI (UACC-62 melanoma) was over 100 µM and the TGI (UO-31 renal) was 34.1 µM.

`CN1CCc2c(sc3ncn(N)c(=N)c23)C1` gave a TGI (786-0 renal) of over 100 µM, a TGI (A498 renal) of over 100 µM and a TGI (A549 NSCLC) of over 100 µM. It also gave a TGI (ACHN renal) of over 100 µM, a TGI (BT-549 breast) of over 100 µM and a TGI (CAKI-1 renal) of over 100 µM. For the same compound, the TGI (CCRF-CEM leukemia) was over 100 µM, the TGI (DU-145 prostate) was over 100 µM and the TGI (EKVX NSCLC) was over 100 µM. It also gave a TGI (HCT-116 colon) of over 100 µM, a TGI (HCT-15 colon) of over 100 µM and a TGI (HL-60(TB) leukemia) of over 100 µM. It also gave a TGI (HOP-62 NSCLC) of over 100 µM, a TGI (HOP-92 NSCLC) of over 100 µM and a TGI (HS 578T breast) of over 100 µM. For the same compound, the TGI (HT29 colon) was over 100 µM, the TGI (IGROV1 ovarian) was over 100 µM and the TGI (K-562 leukemia) was over 100 µM. It also gave a TGI (KM12 colon) of over 100 µM, a TGI (LOX IMVI melanoma) of over 100 µM and a TGI (M14 melanoma) of over 100 µM. For the same compound, the TGI (MALME-3M melanoma) was over 100 µM, the TGI (MCF7 breast) was over 100 µM and the TGI (MDA-MB-231 breast) was over 100 µM. It also gave a TGI (MDA-MB-435) of over 100 µM, a TGI (MDA-N) of over 100 µM and a TGI (MOLT-4 leukemia) of over 100 µM. The TGI (NCI-H226 lung) was over 100 µM, the TGI (NCI-H23 lung) was over 100 µM and the TGI (NCI-H460 lung) was over 100 µM. The TGI (NCI-H522 lung) was over 100 µM, the TGI (NCI/ADR-RES ovarian) was over 100 µM and the TGI (OVCAR-3 ovarian) was over 100 µM. The TGI (OVCAR-4 ovarian) was over 100 µM, the TGI (OVCAR-5 ovarian) was over 100 µM and the TGI (OVCAR-8 ovarian) was over 100 µM. It also gave a TGI (PC-3 prostate) of over 100 µM, a TGI (RPMI-8226 leukemia) of over 100 µM and a TGI (RXF 393 renal) of over 100 µM. It also gave a TGI (SF-268 CNS) of over 100 µM, a TGI (SF-295 CNS) of over 100 µM and a TGI (SF-539 CNS) of over 100 µM. It also gave a TGI (SK-MEL-2 melanoma) of over 100 µM, a TGI (SK-MEL-28 melanoma) of over 100 µM and a TGI (SK-MEL-5 melanoma) of over 100 µM. For the same compound, the TGI (SK-OV-3 ovarian) was over 100 µM, the TGI (SN12C renal) was over 100 µM and the TGI (SNB-19 CNS) was over 100 µM. It also gave a TGI (SNB-75 CNS) of over 100 µM, a TGI (SR leukemia) of over 100 µM and a TGI (SW-620 colon) of over 100 µM. For the same compound, the TGI (T-47D breast) was over 100 µM, the TGI (TK-10 renal) was over 100 µM and the TGI (U251 CNS) was over 100 µM. The TGI (UACC-257 melanoma) was over 100 µM and the TGI (UACC-62 melanoma) was over 100 µM.
